Experimental data as given in ChEMBL document CHEMBL1909046, “DrugMatrix in vitro pharmacology data”.

What follows are compounds tested against Beta-3 adrenergic receptor (Homo sapiens, UniProt P13945) (assay: DRUGMATRIX: Adrenergic beta3 radioligand binding (ligand: [125I] Cyanopindolol)). Conditions: hek293; Not Active = under 50% inhibition at 10 µM.
Assay type: cell membranes, HEK293, Membrane

Beta-3 adrenergic receptor, sequence (P13945 whole entry): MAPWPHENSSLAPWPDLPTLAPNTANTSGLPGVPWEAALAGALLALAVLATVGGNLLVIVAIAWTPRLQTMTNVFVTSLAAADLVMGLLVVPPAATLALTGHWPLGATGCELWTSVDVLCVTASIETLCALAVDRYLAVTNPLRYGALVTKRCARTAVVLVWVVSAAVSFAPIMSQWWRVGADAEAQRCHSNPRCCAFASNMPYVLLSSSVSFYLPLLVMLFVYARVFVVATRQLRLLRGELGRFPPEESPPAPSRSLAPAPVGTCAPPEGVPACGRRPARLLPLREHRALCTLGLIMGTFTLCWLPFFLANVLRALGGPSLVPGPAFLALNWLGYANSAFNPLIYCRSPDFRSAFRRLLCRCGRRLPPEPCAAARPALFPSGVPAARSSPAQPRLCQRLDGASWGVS

Compound	IC50	Ki
CC1CCC(NC(=O)N(CCCl)N=O)CC1 (stereo not drawn) [SEMUSTINE]	Not Active	
O=C1C[C@@H]2OCC=C3CN4CC[C@]56c7ccccc7N1[C@H]5[C@H]2[C@H]3C[C@H]46 [STRYCHNINE]	Not Active	
C[N+](C)(C)CCOC(=O)CCC(=O)OCC[N+](C)(C)C.[Cl-].[Cl-] [SUCCINYLCHOLINE CHLORIDE]	Not Active	
Nc1ccc(S(=O)(=O)NC(=O)c2ccccc2)cc1 [SULFABENZAMIDE]	Not Active	
O=c1[nH]c(=O)n(C2CCCO2)cc1F (stereo not drawn) [TEGAFUR]	Not Active	
CC(=N)S [THIOACETAMIDE]	Not Active	
Cc1ccc(C(=O)c2ccc(CC(=O)O)n2C)cc1 [TOLMETIN]	Not Active	
CC(=O)OCC(COC(C)=O)OC(C)=O [TRIACETIN]	Not Active	
CN1CCN(CCCN2c3ccccc3Sc3ccc(C(F)(F)F)cc32)CC1 [TRIFLUOPERAZINE]	Not Active	
TRANSPLATIN	Not Active	Not Active
ZIRCONIUM(IV) CHLORIDE	Not Active	Not Active

The compounds below were run against Aldo-keto reductase family 1 member B1 (Rattus norvegicus, UniProt P07943) (assay: biochemical). Conditions: not given.
Assay type: tissue-based, Lens of camera-type eye

Compound	IC50	Ki
CC(C)NC[C@H](O)COc1cccc2ccccc12 [LEVOPROPRANOLOL]	Not Active	
CN(C)C(=O)C(CCN1CCC(O)(c2ccc(Cl)cc2)CC1)(c1ccccc1)c1ccccc1 [LOPERAMIDE]	Not Active	
CC1CCC(NC(=O)N(CCCl)N=O)CC1 (stereo not drawn) [SEMUSTINE]	Not Active	
O=C1C[C@@H]2OCC=C3CN4CC[C@]56c7ccccc7N1[C@H]5[C@H]2[C@H]3C[C@H]46 [STRYCHNINE]	Not Active	
C[N+](C)(C)CCOC(=O)CCC(=O)OCC[N+](C)(C)C.[Cl-].[Cl-] [SUCCINYLCHOLINE CHLORIDE]	Not Active	
Nc1ccc(S(=O)(=O)NC(=O)c2ccccc2)cc1 [SULFABENZAMIDE]	Not Active	
CCCCCCCCNC(C)C(O)c1ccc(SC(C)C)cc1 (stereo not drawn) [SULOCTIDIL]	Not Active	
O=c1[nH]c(=O)n(C2CCCO2)cc1F (stereo not drawn) [TEGAFUR]	Not Active	
CC(=N)S [THIOACETAMIDE]	Not Active	
CC(=O)OCC(COC(C)=O)OC(C)=O [TRIACETIN]	Not Active	
CN1CCN(CCCN2c3ccccc3Sc3ccc(C(F)(F)F)cc32)CC1 [TRIFLUOPERAZINE]	Not Active	
TRANSPLATIN	Not Active	Not Active
ZIRCONIUM(IV) CHLORIDE	Not Active	Not Active

Same assay, conditions: read-out: IC50

Compound	IC50
Cc1ccc(C(=O)c2ccc(CC(=O)O)n2C)cc1 [TOLMETIN]	2.15 µM

These compounds were tested against Vascular endothelial growth factor receptor 1 (Homo sapiens, UniProt P17948) (assay: not given). Conditions: huvec.
Vascular endothelial growth factor receptor 1, sequence (P17948 whole entry): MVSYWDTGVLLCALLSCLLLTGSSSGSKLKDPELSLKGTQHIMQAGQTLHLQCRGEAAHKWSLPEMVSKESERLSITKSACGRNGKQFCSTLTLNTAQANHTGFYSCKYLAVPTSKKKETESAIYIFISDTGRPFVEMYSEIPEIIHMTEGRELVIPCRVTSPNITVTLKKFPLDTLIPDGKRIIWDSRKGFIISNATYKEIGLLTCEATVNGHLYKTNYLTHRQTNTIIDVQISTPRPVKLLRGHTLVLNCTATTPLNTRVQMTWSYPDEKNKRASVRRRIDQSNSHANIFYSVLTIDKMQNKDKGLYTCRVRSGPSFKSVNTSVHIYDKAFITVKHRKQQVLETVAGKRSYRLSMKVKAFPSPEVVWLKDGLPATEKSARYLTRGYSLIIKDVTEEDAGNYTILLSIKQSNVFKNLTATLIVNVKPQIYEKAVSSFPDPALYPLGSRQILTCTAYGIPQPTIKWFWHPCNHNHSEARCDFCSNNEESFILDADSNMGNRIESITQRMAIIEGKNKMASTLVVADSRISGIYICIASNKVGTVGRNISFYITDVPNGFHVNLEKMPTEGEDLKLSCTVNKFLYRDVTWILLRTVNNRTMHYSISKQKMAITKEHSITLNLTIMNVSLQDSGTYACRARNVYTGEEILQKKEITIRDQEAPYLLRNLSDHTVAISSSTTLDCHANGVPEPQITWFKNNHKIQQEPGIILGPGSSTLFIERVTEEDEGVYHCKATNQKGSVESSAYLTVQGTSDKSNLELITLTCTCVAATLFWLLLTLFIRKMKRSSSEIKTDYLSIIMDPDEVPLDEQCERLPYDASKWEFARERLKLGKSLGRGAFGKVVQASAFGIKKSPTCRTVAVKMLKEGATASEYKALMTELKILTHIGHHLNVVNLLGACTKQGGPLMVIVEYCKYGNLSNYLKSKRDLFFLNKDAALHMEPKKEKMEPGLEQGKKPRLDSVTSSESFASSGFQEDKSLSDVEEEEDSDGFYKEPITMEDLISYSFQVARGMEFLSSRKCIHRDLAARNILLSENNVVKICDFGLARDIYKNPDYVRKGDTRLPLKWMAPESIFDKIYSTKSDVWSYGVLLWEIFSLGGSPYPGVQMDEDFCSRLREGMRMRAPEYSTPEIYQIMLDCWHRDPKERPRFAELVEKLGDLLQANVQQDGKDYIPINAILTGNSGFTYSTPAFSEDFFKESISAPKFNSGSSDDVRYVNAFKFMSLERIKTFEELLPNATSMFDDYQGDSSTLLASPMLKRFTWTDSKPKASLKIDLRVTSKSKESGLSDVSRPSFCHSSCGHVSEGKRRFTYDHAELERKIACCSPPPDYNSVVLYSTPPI
Assay type: cell-based

Compound	IC50	Ki
CC(C)NC[C@H](O)COc1cccc2ccccc12 [LEVOPROPRANOLOL]	Not Active	
CN(C)C(=O)C(CCN1CCC(O)(c2ccc(Cl)cc2)CC1)(c1ccccc1)c1ccccc1 [LOPERAMIDE]	Not Active	
CC1CCC(NC(=O)N(CCCl)N=O)CC1 (stereo not drawn) [SEMUSTINE]	Not Active	
O=C1C[C@@H]2OCC=C3CN4CC[C@]56c7ccccc7N1[C@H]5[C@H]2[C@H]3C[C@H]46 [STRYCHNINE]	Not Active	
C[N+](C)(C)CCOC(=O)CCC(=O)OCC[N+](C)(C)C.[Cl-].[Cl-] [SUCCINYLCHOLINE CHLORIDE]	Not Active	
Nc1ccc(S(=O)(=O)NC(=O)c2ccccc2)cc1 [SULFABENZAMIDE]	Not Active	
CCCCCCCCNC(C)C(O)c1ccc(SC(C)C)cc1 (stereo not drawn) [SULOCTIDIL]	Not Active	
O=c1[nH]c(=O)n(C2CCCO2)cc1F (stereo not drawn) [TEGAFUR]	Not Active	
CC(=N)S [THIOACETAMIDE]	Not Active	
Cc1ccc(C(=O)c2ccc(CC(=O)O)n2C)cc1 [TOLMETIN]	Not Active	
CC(=O)OCC(COC(C)=O)OC(C)=O [TRIACETIN]	Not Active	
CN1CCN(CCCN2c3ccccc3Sc3ccc(C(F)(F)F)cc32)CC1 [TRIFLUOPERAZINE]	Not Active	
TRANSPLATIN	Not Active	Not Active
ZIRCONIUM(IV) CHLORIDE	Not Active	Not Active

Each compound was assayed against T1, C-C chemokine receptor type 4 (Homo sapiens, UniProt P51679) (assay: not given). Conditions: chem-1.
T1 sequence (P51679 whole entry): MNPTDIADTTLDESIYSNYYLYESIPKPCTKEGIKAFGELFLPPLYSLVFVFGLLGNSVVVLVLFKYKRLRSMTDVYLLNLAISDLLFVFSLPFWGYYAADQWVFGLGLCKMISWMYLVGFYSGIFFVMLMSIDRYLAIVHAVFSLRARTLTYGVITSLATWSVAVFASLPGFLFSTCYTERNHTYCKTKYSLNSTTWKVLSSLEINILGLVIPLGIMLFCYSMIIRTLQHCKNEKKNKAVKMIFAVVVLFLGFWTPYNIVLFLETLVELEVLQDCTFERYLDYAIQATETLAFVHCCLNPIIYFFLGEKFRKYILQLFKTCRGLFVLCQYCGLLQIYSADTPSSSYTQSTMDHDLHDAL
Assay type: cell membranes, Membrane

Compound	IC50	Ki
CC(C)NC[C@H](O)COc1cccc2ccccc12 [LEVOPROPRANOLOL]	Not Active	
CN(C)C(=O)C(CCN1CCC(O)(c2ccc(Cl)cc2)CC1)(c1ccccc1)c1ccccc1 [LOPERAMIDE]	Not Active	
CC1CCC(NC(=O)N(CCCl)N=O)CC1 (stereo not drawn) [SEMUSTINE]	Not Active	
O=C1C[C@@H]2OCC=C3CN4CC[C@]56c7ccccc7N1[C@H]5[C@H]2[C@H]3C[C@H]46 [STRYCHNINE]	Not Active	
C[N+](C)(C)CCOC(=O)CCC(=O)OCC[N+](C)(C)C.[Cl-].[Cl-] [SUCCINYLCHOLINE CHLORIDE]	Not Active	
Nc1ccc(S(=O)(=O)NC(=O)c2ccccc2)cc1 [SULFABENZAMIDE]	Not Active	
CCCCCCCCNC(C)C(O)c1ccc(SC(C)C)cc1 (stereo not drawn) [SULOCTIDIL]	Not Active	
O=c1[nH]c(=O)n(C2CCCO2)cc1F (stereo not drawn) [TEGAFUR]	Not Active	
CC(=N)S [THIOACETAMIDE]	Not Active	
Cc1ccc(C(=O)c2ccc(CC(=O)O)n2C)cc1 [TOLMETIN]	Not Active	
CC(=O)OCC(COC(C)=O)OC(C)=O [TRIACETIN]		Not Active
CN1CCN(CCCN2c3ccccc3Sc3ccc(C(F)(F)F)cc32)CC1 [TRIFLUOPERAZINE]		Not Active
TRANSPLATIN	Not Active	Not Active
ZIRCONIUM(IV) CHLORIDE	Not Active	Not Active

Each compound was assayed against T2, Cathepsin G (Homo sapiens, UniProt P08311) (assay: not given). Conditions: neutrophil.
T2 sequence (P08311 whole entry): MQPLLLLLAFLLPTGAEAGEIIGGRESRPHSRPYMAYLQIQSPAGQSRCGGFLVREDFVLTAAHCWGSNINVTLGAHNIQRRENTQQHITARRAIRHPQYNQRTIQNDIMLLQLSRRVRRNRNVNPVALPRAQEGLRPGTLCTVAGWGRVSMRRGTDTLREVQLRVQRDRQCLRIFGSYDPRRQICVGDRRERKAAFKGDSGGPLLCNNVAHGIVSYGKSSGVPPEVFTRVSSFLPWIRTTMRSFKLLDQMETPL
Assay type: tissue-based

Compound	IC50	Ki
CC(C)NC[C@H](O)COc1cccc2ccccc12 [LEVOPROPRANOLOL]	Not Active	
CN(C)C(=O)C(CCN1CCC(O)(c2ccc(Cl)cc2)CC1)(c1ccccc1)c1ccccc1 [LOPERAMIDE]	Not Active	
CC1CCC(NC(=O)N(CCCl)N=O)CC1 (stereo not drawn) [SEMUSTINE]	Not Active	
O=C1C[C@@H]2OCC=C3CN4CC[C@]56c7ccccc7N1[C@H]5[C@H]2[C@H]3C[C@H]46 [STRYCHNINE]	Not Active	
C[N+](C)(C)CCOC(=O)CCC(=O)OCC[N+](C)(C)C.[Cl-].[Cl-] [SUCCINYLCHOLINE CHLORIDE]	Not Active	
Nc1ccc(S(=O)(=O)NC(=O)c2ccccc2)cc1 [SULFABENZAMIDE]	Not Active	
CCCCCCCCNC(C)C(O)c1ccc(SC(C)C)cc1 (stereo not drawn) [SULOCTIDIL]	Not Active	
O=c1[nH]c(=O)n(C2CCCO2)cc1F (stereo not drawn) [TEGAFUR]	Not Active	
CC(=N)S [THIOACETAMIDE]	Not Active	
Cc1ccc(C(=O)c2ccc(CC(=O)O)n2C)cc1 [TOLMETIN]	Not Active	
CC(=O)OCC(COC(C)=O)OC(C)=O [TRIACETIN]	Not Active	
CN1CCN(CCCN2c3ccccc3Sc3ccc(C(F)(F)F)cc32)CC1 [TRIFLUOPERAZINE]	Not Active	
TRANSPLATIN	Not Active	Not Active
ZIRCONIUM(IV) CHLORIDE	Not Active	Not Active

These compounds were tested against Protein phosphatase 3 catalytic subunit alpha (Homo sapiens, UniProt Q08209) (assay: not given). Conditions: not given.
Design: species or system Escherichia coli

Compound	IC50	Ki
CC(C)NC[C@H](O)COc1cccc2ccccc12 [LEVOPROPRANOLOL]	Not Active	
CN(C)C(=O)C(CCN1CCC(O)(c2ccc(Cl)cc2)CC1)(c1ccccc1)c1ccccc1 [LOPERAMIDE]	Not Active	
CC1CCC(NC(=O)N(CCCl)N=O)CC1 (stereo not drawn) [SEMUSTINE]	Not Active	
O=C1C[C@@H]2OCC=C3CN4CC[C@]56c7ccccc7N1[C@H]5[C@H]2[C@H]3C[C@H]46 [STRYCHNINE]	Not Active	
C[N+](C)(C)CCOC(=O)CCC(=O)OCC[N+](C)(C)C.[Cl-].[Cl-] [SUCCINYLCHOLINE CHLORIDE]	Not Active	
Nc1ccc(S(=O)(=O)NC(=O)c2ccccc2)cc1 [SULFABENZAMIDE]	Not Active	
CCCCCCCCNC(C)C(O)c1ccc(SC(C)C)cc1 (stereo not drawn) [SULOCTIDIL]	Not Active	
O=c1[nH]c(=O)n(C2CCCO2)cc1F (stereo not drawn) [TEGAFUR]	Not Active	
CC(=N)S [THIOACETAMIDE]	Not Active	
Cc1ccc(C(=O)c2ccc(CC(=O)O)n2C)cc1 [TOLMETIN]	Not Active	
CC(=O)OCC(COC(C)=O)OC(C)=O [TRIACETIN]	Not Active	
CN1CCN(CCCN2c3ccccc3Sc3ccc(C(F)(F)F)cc32)CC1 [TRIFLUOPERAZINE]	Not Active	
TRANSPLATIN	Not Active	Not Active
ZIRCONIUM(IV) CHLORIDE	Not Active	Not Active

Each compound was assayed against Tyrosine-protein kinase Fyn (Homo sapiens, UniProt P06241) (assay: biochemical). Conditions: insect cells.
Tyrosine-protein kinase Fyn, sequence (P06241 whole entry): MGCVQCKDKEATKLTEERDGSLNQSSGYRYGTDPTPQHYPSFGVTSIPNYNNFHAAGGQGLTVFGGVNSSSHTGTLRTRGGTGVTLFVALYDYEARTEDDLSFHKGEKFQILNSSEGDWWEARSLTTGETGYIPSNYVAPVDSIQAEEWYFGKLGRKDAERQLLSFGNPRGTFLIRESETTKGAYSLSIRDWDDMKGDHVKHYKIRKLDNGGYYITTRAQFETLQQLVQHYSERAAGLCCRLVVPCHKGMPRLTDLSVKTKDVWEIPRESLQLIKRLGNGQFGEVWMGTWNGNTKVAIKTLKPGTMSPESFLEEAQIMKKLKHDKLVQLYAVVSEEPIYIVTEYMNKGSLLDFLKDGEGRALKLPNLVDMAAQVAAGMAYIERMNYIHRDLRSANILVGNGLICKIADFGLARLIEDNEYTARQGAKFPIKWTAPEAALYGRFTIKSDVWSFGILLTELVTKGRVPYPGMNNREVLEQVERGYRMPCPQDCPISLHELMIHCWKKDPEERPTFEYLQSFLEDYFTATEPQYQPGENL
Assay type: cell-based, Insect cells

Compound	IC50	Ki
CC(C)NC[C@H](O)COc1cccc2ccccc12 [LEVOPROPRANOLOL]	Not Active	
CN(C)C(=O)C(CCN1CCC(O)(c2ccc(Cl)cc2)CC1)(c1ccccc1)c1ccccc1 [LOPERAMIDE]	Not Active	
CC1CCC(NC(=O)N(CCCl)N=O)CC1 (stereo not drawn) [SEMUSTINE]	Not Active	
O=C1C[C@@H]2OCC=C3CN4CC[C@]56c7ccccc7N1[C@H]5[C@H]2[C@H]3C[C@H]46 [STRYCHNINE]	Not Active	
C[N+](C)(C)CCOC(=O)CCC(=O)OCC[N+](C)(C)C.[Cl-].[Cl-] [SUCCINYLCHOLINE CHLORIDE]	Not Active	
Nc1ccc(S(=O)(=O)NC(=O)c2ccccc2)cc1 [SULFABENZAMIDE]	Not Active	
O=c1[nH]c(=O)n(C2CCCO2)cc1F (stereo not drawn) [TEGAFUR]	Not Active	
CC(=N)S [THIOACETAMIDE]	Not Active	
Cc1ccc(C(=O)c2ccc(CC(=O)O)n2C)cc1 [TOLMETIN]	Not Active	
CC(=O)OCC(COC(C)=O)OC(C)=O [TRIACETIN]	Not Active	
CN1CCN(CCCN2c3ccccc3Sc3ccc(C(F)(F)F)cc32)CC1 [TRIFLUOPERAZINE]	Not Active	
ZIRCONIUM(IV) CHLORIDE	Not Active	Not Active

Same assay, conditions: insect cells; read-out: IC50

Compound	IC50
TRANSPLATIN	0.565 µM

Same assay, conditions: read-out: IC50

Compound	IC50
CCCCCCCCNC(C)C(O)c1ccc(SC(C)C)cc1 (stereo not drawn) [SULOCTIDIL]	0.722 µM
